Laboratory results published in US20180310561A1 (priority 2015, published 2018).

Legend:
[1] = tested on: Botrytis cinerea; test: Activity against the grey mold Botrytis cinerea in the microtiterplate test; format: cell-based; conditions: relative growth vs active compound-free control (100%), MTP measured at 405 nm 7 days after inoculation
[2] = tested on: Septoria tritici; test: Activity against leaf blotch on wheat caused by Septoria tritici (microtiter plate); format: cell-based; conditions: relative growth vs active compound-free control (100%), MTP measured at 405 nm 7 days after inoculation
[3] = tested on: Fusarium culmorum; test: Green house: control of culm rot on pearl millet caused by Fusarium culmorum; format: in vivo; conditions: 63 ppm spray on pearl millet seedlings; inoculated 7 days later; % diseased leaf area assessed after 6 days; untreated control 90
Procedure: The spray solutions were prepared in several steps:
The stock solution were prepared: a mixture of acetone and/or dimethylsulfoxide and the wetting agent/emulsifier Wettol, which is based on ethoxylated alkylphenoles, in a relation (volume) solvent-emulsifier of 99 to 1 was added to 25 mg of the compound to give a total of 5 ml. Water was then added to total volume of 100 ml.
This stock solution was diluted with the described solvent-emulsifier-water mixture to the given concentration.
Pot-grown pearl millet seedlings were sprayed to run-off with an aqueous suspension, containing the concentration of active ingredient or their mixture as described below.The plants were allowed to air-dry. Seven days later the plants were inoculated with an spore suspension of Fusarium culmorum in a aqueous biomalt solution. Then the trial plants were immediately transferred to a humid chamber. After 6 days at 23-25° C. and a relative humidity close to 100% the extent of fungal attack on the leaves was visually assessed as % diseased leaf area.

[4] = tested on: Pyricularia oryzae; format: cell-based; conditions: relative growth vs active compound-free control (100%), MTP measured at 405 nm 7 days after inoculation
[5] = tested on: Alternaria solani; test: Activity against early blight caused by Alternaria solani (microtiter plate); format: cell-based; conditions: relative growth vs active compound-free control (100%), MTP measured at 405 nm 7 days after inoculation
[6] = tested on: Leptosphaeria nodorum; test: Activity against wheat leaf spots caused by Leptosphaeria nodorum (microtiter plate); format: cell-based; conditions: relative growth vs active compound-free control (100%), MTP measured at 405 nm 7 days after inoculation

| SMILES | Growth (%) at 32 ppm Botottis cinerea [1] | Growth (%) at 32 ppm Septona triad [2] | Disease (%) at 63 ppm [3] | Growth (%) at 31 ppm Leptosphaeria nodorum [6] | further results |
| --- | --- | --- | --- | --- | --- |
| Cc1cc(C2=NC(C)(C)Cc3c(Br)cccc32)cnc1C [I-1, 5-Bromo-1-(5,6-dimethyl-3-pyridyl)-3,3-dimethyl-4H-isoquinoline] | 0% | 0% | 53% | – | – |
| Cc1cc(C2=NC(C)(C)Cc3ccccc32)cnc1C | – | – | – | 72% | Growth (%) at 31 ppm Pyricularia [4]: 23%; Growth (%) at 31 ppm Alternaria solanioryzae [5]: 47% |
| Cc1ccc(C2=CC(C)(C)Cc3ccccc32)cc1C | 84% | 93% | – | – | – |
| Cc1cc(C2=NC(C)(C)Cc3c(F)cccc32)cnc1C [drawing 1382] | – | – | 88% | – | – |
| Cc1cc(C2=NC(C)(C)Cc3c(F)cccc32)cnc1C [drawing 1380] | – | – | – | 39% | – |
